# What was measured:
# S. aureus (ATCC 29213) = test: Antibacterial susceptibility testing (MIC, broth microdilution or agar dilution), S. aureus; type: cell-based; details: Staphylococcus aureus, ATCC29213; read-out: S. aureus (ATCC 29213) minimal inhibitory concentration (MIC)
# Description: (§1) Compounds of the invention were tested for antimicrobial activity by susceptibility testing in liquid or on solid media. MICs for compounds against each strain were determined by the broth microdilution or agar dilution method according to the guidelines of the Clinical Laboratories and Standards Institute, formerly the National Committee for Clinical Laboratory Standards (Clinical Laboratories and Standards Institute. Methods for Dilution Antimicrobial Susceptibility Tests for Bacteria That Grow Aerobically; Approved Standard—Seventh Edition. Document M7-A7. CLSI, Wayne, Pa., 2006; Clinical Laboratories and Standards Institute. The Gram positive bacterial strains tested include S. aureus (Staphylococcus aureus (Isolate ID ATCC 29213)), E. faecalis (Enterococcus faecalis (Isolate ID ATCC 29212)) and S. pyogenes (Streptococcus pyogenes (Isolate ID ATCC 51339)). The Gram negative bacterial strains tested include H. influenzae (Haemophilus influenzae (Isolate ID ATCC 49247)).
# S. pyogenes (ATCC 51339) = test: Antibacterial susceptibility testing (MIC, broth microdilution or agar dilution), S. pyogenes; type: cell-based; details: Streptococcus pyogenes, ATCC51339; read-out: S. pyogenes (ATCC 51339) minimal inhibitory concentration (MIC)
# Description: as §1
Compound,MIC (S. aureus (ATCC 29213)) [µg/mL],MIC (S. pyogenes (ATCC 51339)) [µg/mL]
"CCNC(=O)Nc1cc(Nc2ccccc2)c(C(=O)Nc2ccc(F)cc2)cn1 [Compound 55, 6-(3-ethylureido)-N-(4-fluorophenyl)-4-(phenylamino)nicotinamide]",≤ 1,4
"CCNC(=O)Nc1cc(Nc2ccccc2)c(C(=O)Nc2ccncc2)cn1 [Compound 42, 6-(3-ethylureido)-4-(phenylamino)-N-(pyridin-4-yl)nicotinamide]",≤ 1,≤ 1
"CCNC(=O)Nc1cc(Nc2ccccc2)c(C(=O)Nc2ccc(C)cc2)cn1 [Compound 46, 6-(3-ethylureido)-4-(phenylamino)-N-p-tolylnicotinamide]",2,4
"CCNC(=O)Nc1cc(Nc2ccccc2)c(C(=O)NCc2ccncc2)cn1 [Compound 51, 6-(3-ethylureido)-4-(phenylamino)-N-(pyridin-4-ylmethyl)nicotinamide]",32,2
"CCNC(=O)Nc1cc(Nc2ccccc2)c(C(=O)Nc2ccnn2C)cn1 [Compound 10, 6-(3-Ethylureido)-N-(1-methyl-1H-pyrazol-5-yl)-4-(phenylamino)nicotinamide]",16,2
"CCNC(=O)Nc1cc(Nc2ccccc2)c(C(=O)Nc2ccc(OC)cc2)cn1 [Compound 33, 6-(3-ethylureido)-N-(4-methoxyphenyl)-4-(phenylamino)nicotinamide]",4,16
"CCNC(=O)Nc1cc(Nc2ccccc2)c(C(=O)Nc2c(C)noc2C)cn1 [Compound 50, N-(3,5-dimethylisoxazol-4-yl)-6-(3-ethylureido)-4-(phenylamino)nicotinamide]",,4

# More lines, now with the values ahead:
MIC (S. aureus (ATCC 29213)) [µg/mL],MIC (S. pyogenes (ATCC 51339)) [µg/mL],Compound
≤ 1,2,"CCNC(=O)Nc1cc(Nc2cccc(Cl)c2)c(C(=O)Nc2cccnc2)cn1 [Compound 107, 4-(3-chlorophenylamino)-6-(3-ethylureido)-N-(pyridin-3-yl)nicotinamide]"
2,≤ 1,"CCNC(=O)Nc1cc(Nc2ccccc2)c(C(=O)Nc2cnc3c(c2)ncn3C)cn1 [Compound 88, 6-(3-ethylureido)-N-(3-methyl-3H-imidazo[4,5-b]pyridin-6-yl)-4-(phenylamino)nicotinamide]"
≤ 1,8,"CCNC(=O)Nc1cc(Nc2ccccc2)c(C(=O)Nc2cncc(C(=O)OC)c2)cn1 [Compound 89, methyl 5-(6-(3-ethylureido)-4-(phenylamino)nicotinamido)nicotinate]"
≤ 1,≤ 1,"CCNC(=O)Nc1cc(Nc2ccccc2)c(C(=O)Nc2cncc(F)c2)cn1 [Compound 85, 6-(3-ethylureido)-N-(5-fluoropyridin-3-yl)-4-(phenylamino)nicotinamide]"
2,≤ 1,"CCNC(=O)Nc1cc(Nc2ccccc2)c(C(=O)Nc2ccc(C#N)nc2)cn1 [Compound 104, N-(6-cyanopyridin-3-yl)-6-(3-ethylureido)-4-(phenylamino)nicotinamide]"
4,≤ 1,"CCNC(=O)Nc1cc(Nc2ccccc2)c(C(=O)Nc2cncnc2)cn1 [Compound 60, 6-(3-ethylureido)-4-(phenylamino)-N-(pyrimidin-5-yl)nicotinamide]"
≤ 1,≤ 1,"CCNC(=O)Nc1cc(Nc2ccc(Cl)cc2)c(C(=O)Nc2cccnc2)cn1 [Compound 106, 4-(4-chlorophenylamino)-6-(3-ethylureido)-N-(pyridin-3-yl)nicotinamide]"
8,4,"CCNC(=O)Nc1cc(Nc2ccc(CCC(=O)OCC)cc2)c(C(=O)Nc2cccnc2)cn1 [Compound 131, ethyl 3-(4-(2-(3-ethylureido)-5-(pyridin-3-ylcarbamoyl)pyridin-4-ylamino)phenyl)propanoate]"
≤ 1,2,"CCNC(=O)Nc1cc(Nc2ccccc2)c(C(=O)Nc2cccc(F)c2)cn1 [Compound 56, 6-(3-ethylureido)-N-(3-fluorophenyl)-4-(phenylamino)nicotinamide]"
